Laboratory results: PubChem BioAssay (NCI)
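Values below derive from 48-hour exposures of cells grown in 96-well plates, with endpoints linearly interpolated between the two concentrations bracketing the appropriate inhibition level. GI50 is the concentration that inhibits growth by half. TGI marks complete inhibition of growth.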

Columns and labels:
Assay in all cases: inhibition of tumour cell growth, NCI panel, 48 h
CCRF-CEM leukemia = tested on: CCRF-CEM leukemia
COLO 205 colon = tested on: COLO 205 colon
EKVX NSCLC = tested on: EKVX NSCLC
MOLT-4 leukemia = tested on: MOLT-4 leukemia
NCI-H522 lung = tested on: NCI-H522 lung
SF-295 CNS = tested on: SF-295 CNS
SN12C renal = tested on: SN12C renal
U251 CNS = tested on: U251 CNS
UACC-62 melanoma = tested on: UACC-62 melanoma
M14 melanoma = tested on: M14 melanoma

SMILES | GI50 (CCRF-CEM leukemia) | TGI (CCRF-CEM leukemia) | GI50 (COLO 205 colon) | TGI (COLO 205 colon) | GI50 (EKVX NSCLC) | TGI (EKVX NSCLC) | GI50 (MOLT-4 leukemia) | TGI (MOLT-4 leukemia) | GI50 (NCI-H522 lung) | TGI (NCI-H522 lung) | GI50 (SF-295 CNS) | TGI (SF-295 CNS) | GI50 (SN12C renal) | TGI (SN12C renal) | GI50 (U251 CNS) | TGI (U251 CNS) | GI50 (UACC-62 melanoma) | TGI (UACC-62 melanoma) | GI50 (M14 melanoma) | TGI (M14 melanoma)
CCCCCCCCc1cc(O)ccc1O | 4.09 µM | 33.3 µM | 30.1 µM | 68.7 µM | 18.1 µM | 61.1 µM | 17.3 µM | 72.8 µM | 5.65 µM | 25.3 µM | 20.7 µM | 49 µM | 14.3 µM | 27.4 µM | 18.5 µM | 40.6 µM | 13.6 µM | 26.6 µM | – | –
COC(=O)[C@@H](C)C[C@H](Cc1ccccc1)NC(=O)c1csc([C@@H](C[C@H](C(C)C)N(C)C(=O)[C@@H](NC(=O)[C@H]2CCCCN2C)C(C(F)(F)F)C(F)(F)F)OC(C)=O)n1 | 0.0539 µM | 9.05 µM | 0.0658 µM | 0.556 µM | 0.102 µM | > 16.7 µM | 0.0631 µM | > 16.7 µM | 0.0125 µM | 0.264 µM | 0.0368 µM | > 16.7 µM | 0.106 µM | > 16.7 µM | 0.0655 µM | > 16.7 µM | 0.0154 µM | > 16.7 µM | 0.0333 µM | 0.115 µM
Oc1ccc(O)c(-n2cccn2)c1-n1cccn1 | – | > 10 µM | – | 90.1 µM | – | > 100 µM | – | > 10 µM | – | 73.1 µM | – | > 100 µM | – | > 100 µM | – | > 100 µM | – | > 100 µM | – | > 100 µM
C=CCO[C@H]1CC[C@@]2(C)C(CC[C@]3(C)C2CC=C2[C@@H]4[C@@H](C)C(C)CC[C@]4(C(=O)O)CCC23C)C1(C)C (stereo partly specified) | – | 28.9 µM | – | 32.4 µM | – | 38.1 µM | – | – | – | 28.4 µM | – | 27.5 µM | – | 27.1 µM | – | 30.3 µM | – | 28.3 µM | – | 34.6 µM
CC(CC(=O)Nc1ccc(NC(=O)CC(C)N=NC(N)=O)cc1)N=NC(N)=O (stereo unspecified) | – | > 100 µM | – | > 100 µM | – | > 100 µM | – | > 100 µM | – | > 100 µM | – | > 100 µM | – | > 100 µM | – | > 100 µM | – | > 100 µM | – | > 100 µM
C=C1C(=O)OC2(C)CCC1CC1OC1(C)CCC=C(C)CCC2O (stereo unspecified) | – | > 100 µM | – | > 100 µM | – | > 100 µM | – | > 100 µM | – | > 100 µM | – | > 100 µM | – | > 100 µM | – | > 100 µM | – | > 100 µM | – | > 100 µM
COc1ccc(/C=C/C(=O)c2ccc(Nc3nc(Nc4ccc(F)cc4)nc(Nc4ccc(F)cc4)n3)cc2)cc1 | 5.15 µM | 48.2 µM | 9.57 µM | 29.6 µM | 23.9 µM | > 100 µM | 3.11 µM | 21.9 µM | 8.89 µM | 24.9 µM | 14.2 µM | 42.7 µM | 55.1 µM | > 100 µM | 16.7 µM | 56.2 µM | 29.9 µM | > 100 µM | 12.3 µM | 36.7 µM
CSc1nc2ccc(C)cc2cc1/C=C1/C=C(c2ccccc2)NC1=O | 26.4 µM | > 100 µM | 5.9 µM | > 100 µM | 13.1 µM | > 100 µM | 15.5 µM | > 100 µM | 3.53 µM | 42.5 µM | 1.44 µM | 15 µM | 4.53 µM | 32.3 µM | 0.602 µM | 3.68 µM | 10.8 µM | 48.2 µM | 5.42 µM | 78 µM
O/N=C1\C(=C\c2ccc3c(c2)OCCO3)CCCC1C(NO)c1ccc2c(c1)OCCO2 (stereo unspecified) | – | 48.9 µM | – | 98.4 µM | – | 69.6 µM | – | 32.4 µM | – | 29.6 µM | – | > 100 µM | – | 29.8 µM | – | 42.2 µM | – | 31.7 µM | – | 34.4 µM
COc1ccc2c(c1)[nH]c1c3ccc(OC)cc3oc(=O)c21 | – | > 100 µM | – | > 100 µM | – | > 100 µM | – | > 100 µM | – | – | – | > 100 µM | – | > 100 µM | – | > 100 µM | – | > 100 µM | – | > 100 µM
Nc1ccn(C2CC3OCC3O2)c(=O)n1 (stereo unspecified) | – | > 100 µM | – | > 100 µM | – | > 100 µM | – | > 100 µM | – | > 100 µM | – | > 100 µM | – | > 100 µM | – | > 100 µM | – | > 100 µM | – | > 100 µM
COC(=O)C(=O)C(C#N)c1c(Cl)cccc1Cl (stereo unspecified) | – | – | – | > 100 µM | – | > 100 µM | – | > 100 µM | – | > 100 µM | – | > 100 µM | – | > 100 µM | – | – | – | > 100 µM | – | > 100 µM
C/C(=N\Nc1n[nH]c(=S)n1N)c1c(O)cc(C)oc1=O | – | > 100 µM | – | – | – | > 100 µM | – | > 100 µM | – | > 100 µM | – | > 100 µM | – | > 100 µM | – | > 100 µM | – | > 100 µM | – | > 100 µM
CN(C)C(=S)/N=c1\ss/c(=N\S(=O)(=O)c2ccccc2)n1C | – | > 100 µM | – | – | – | > 100 µM | – | > 100 µM | – | > 100 µM | – | > 100 µM | – | > 100 µM | – | > 100 µM | – | > 100 µM | – | > 100 µM
CN1C/C(=C\c2ccc(C(=O)O)cc2)C(=O)/C(=C/c2ccc(C(=O)O)cc2)C1 | – | > 100 µM | – | > 100 µM | – | > 100 µM | – | > 100 µM | – | – | – | > 100 µM | – | > 100 µM | – | > 100 µM | – | > 100 µM | – | > 100 µM
CCN1CCC(O)(/C=C/c2ccccc2)C(C(=O)/C=C/c2ccccc2)C1 (stereo unspecified) | – | – | – | 3.49 µM | – | 11.8 µM | – | 5.38 µM | – | 3.36 µM | – | 9.73 µM | – | 3.7 µM | – | 6.67 µM | – | 3.49 µM | – | 4.13 µM
C#C[C@@H](CCCC)OC(=O)N[C@H](C)c1ccccc1 | – | > 100 µM | – | – | – | > 100 µM | – | > 100 µM | – | – | – | > 100 µM | – | > 100 µM | – | > 100 µM | – | > 100 µM | – | > 100 µM
N#CC(C#N)C(c1ccccc1)c1ccccc1 | – | > 100 µM | – | > 100 µM | – | – | – | > 100 µM | – | > 100 µM | – | > 100 µM | – | > 100 µM | – | > 100 µM | – | > 100 µM | – | > 100 µM
CCOC(=O)C(=O)Nc1nc2ccc(C)cc2s1 | – | > 100 µM | – | > 100 µM | – | > 100 µM | – | > 100 µM | – | > 100 µM | – | – | – | > 100 µM | – | > 100 µM | – | > 100 µM | – | > 100 µM
